Source: patent US7745641B2, “Nitrogen-containing heterocyclic compound” (Kyowa Hakko Kirin Co., Ltd., priority 2005, dated 2010)

Columns and labels:
leukemia-transplant mice = conditions: drugs that act on Flt-3; cited from earlier work
[1] = several evaluation models; drugs reported to act on FGFR; cited from earlier work
HCT116 cells = test: Evaluation of Aurora inhibitory activity by analysis of nuclear morphology (enlarged lobed nuclei); assay type: cell-based, human; conditions: concentration in the range of 0.1 to 1 μmol/L, 17 hours contact; optimal concentration different in each compound
Experimental: 281 (2003)]. Consequently, enlarged lobed nuclei-inducibility of test compounds for HCT116 cells was evaluated. McCoy's 5A culture medium (GIBCO, Catalogue No. 16600-082) containing 10% bovine fetus serum (GIBCO, Catalogue No. 10099-141) was used for the cultivation of the cells. HCT116 cells were inoculated and, 24 hours later, each test compound was added thereto.

human FGFR3 = target: T1, human FGFR3 (Homo sapiens, UniProt P22607); test: Fibroblast growth factor receptor 3 (FGFR3) inhibitory activity, time-resolved fluoroimmunoassay; assay type: biochemical; conditions: 10 μmol/L test compound
T1 construct: the intracellular domain (448-759 amino acids) of human FGFR3; made in house; host or cells: insect cells (baculovirus)
T1 sequence (P22607 448-759): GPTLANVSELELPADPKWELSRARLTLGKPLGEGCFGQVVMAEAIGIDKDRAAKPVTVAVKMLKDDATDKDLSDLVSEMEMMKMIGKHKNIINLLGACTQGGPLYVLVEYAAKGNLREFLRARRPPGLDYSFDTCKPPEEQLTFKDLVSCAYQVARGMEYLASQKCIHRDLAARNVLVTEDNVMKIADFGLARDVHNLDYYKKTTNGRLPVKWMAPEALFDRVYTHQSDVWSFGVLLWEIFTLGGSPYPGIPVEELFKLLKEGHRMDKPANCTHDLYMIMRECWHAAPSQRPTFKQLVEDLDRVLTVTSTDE
Experimental: In order to determine FGFR3 inhibitory activity, the following method was employed. FGFR3 was prepared by allowing baculovirus that expresses a protein in which glutathione S-transferase (GST) was fused to the N-terminal of the intracellular domain (448-759 amino acids) of human FGFR3 to infect insect cells. Biotinylated polyglutamic acid-tyrosine peptide (Nihon Schering K.K., Catalogue No. 61GT0BAA) used as a substrate was immobilized on a 96-well plate coated with NeutroAvidin (Pierce, Catalogue No. 31000) and was then blocked with 0.25% gelatin to yield a plate for the determination of kinase reaction A solution containing, at final concentrations, 8 μg/L GST-fused FGFR3 protein, 20 mmol/L Tris-Cl (pH 7.5), 0.04% 2-mercaptoethanol, 0.04 mmol/L Na3VO4, 20 mmol/L MgCl2, 5 mmol/L MnCl2, 10 mmol/L ATP, 0.1% bovine serum albumin (BSA; Sigma Corporation, Catalogue No. A4503), 0.1% dimethyl sulfoxide (DMSO), and 10 μmol/L test compound was prepared. Subsequently, 50 μL of the solution was placed in each of the wells of the plate for the determination of kinase reaction, followed by enzymatic reaction at 24° C. for 60 minutes. The plate was washed with TBS-T [10 mM Tris-Cl (pH 7.5), 150 mmol/L NaCl, and 0.05% Tween 20 (Bio-Rad Laboratories Inc., Catalogue No. 170-6531)] four times, and allowed to react with europium-labeled anti-phosphotyrosine antibody (PerkinElmer Inc. Catalogue No. AD0160) at room temperature for 60 minutes. The plate was further washed with TBS-T four times. Subsequently, DELFIA. Enhancement Solution (PerkinElmer Inc. Catalogue No. 1244-105) was added to the plate, and time-resolved fluoroimmunoassay was performed (excitation wavelength: 340 nm, measuring wavelength: 615 nm). The relative activity (%) of a well in which the test compound was added was calculated using the value of a well containing the enzyme and 0.1% DMSO being 100% and the value of a well not containing the enzyme being 0%. The FGFR3 inhibitory activity (%) of the test compound was determined by subtracting the relative activity (%) from 100.

Flt-3 = target: T2, Flt-3 (Homo sapiens, UniProt P36888); test: Flt-3 inhibitory activity, time-resolved fluoroimmunoassay; assay type: biochemical; conditions: 10 μmol/L test compound
T2 construct: His tag; purchased Upstate Inc. 14-500
T2 sequence (P36888 564-993 limits assumed): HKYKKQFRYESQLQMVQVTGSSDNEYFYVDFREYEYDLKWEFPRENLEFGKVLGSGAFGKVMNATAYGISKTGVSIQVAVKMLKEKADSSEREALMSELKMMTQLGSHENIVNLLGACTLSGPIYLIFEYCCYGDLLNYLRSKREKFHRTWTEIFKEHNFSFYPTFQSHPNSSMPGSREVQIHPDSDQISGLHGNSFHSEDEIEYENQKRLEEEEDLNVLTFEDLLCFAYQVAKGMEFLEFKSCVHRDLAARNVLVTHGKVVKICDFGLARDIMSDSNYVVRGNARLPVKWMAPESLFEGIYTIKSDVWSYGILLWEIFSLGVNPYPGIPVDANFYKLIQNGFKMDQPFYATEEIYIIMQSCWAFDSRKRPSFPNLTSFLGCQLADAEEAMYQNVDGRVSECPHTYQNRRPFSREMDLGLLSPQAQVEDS
Experimental: Flt-3 inhibitory activity was determined by a method described below.
Biotinylated polyglutamic acid-tyrosine peptide (Nihon Schering K.K., Catalogue No. 61GT0BAA) used as a substrate was immobilized on a 96-well plate (FIA-PLATE BLACK 96 well FALT-BOTTOM HIGH BINDING, Greiner Bio-one Co., Ltd., Catalogue No. 655077) coated with NeutroAvidin (Pierce, Catalogue No. 31000) and was then blocked with 0.25% gelatin to yield a plate for the determination of kinase reaction. A solution containing, at final concentrations, 8 μg/L His-tagged protein-fused Flt-3 (Upstate Inc., Catalogue No. 14-500), 20 mmol/L Tris-Cl (pH 7.5), 0.04% 2-mercaptoethanol, 0.04 mmol/L Na3VO4, 20 mmol/L MgCl2, 5 mmol/L MnCl2, 10 μmol/L ATP, 0.1% BSA, 0.1% DMSO, and […] test compound was prepared. Subsequently, 50 μL of the solution was placed in each of the wells of the plate for the determination of kinase reaction, followed by enzymatic reaction at 24° C. for 60 minutes. The plate was washed with TBS-T [10 mmol/L Tris-Cl (pH 7.5), 150 mmol/L NaCl, and 0.05% Tween 20 (Bio-Rad Laboratories Inc., Catalogue No. 170-6531)] four times, and allowed to react with europium-labeled anti-phosphotyrosine antibody (PerkinElmer Inc. Catalogue No. AD0160) at room temperature for 60 minutes. The plate was further washed with TBS-T four times. Subsequently, time-resolved fluoroimmunoassay was performed (excitation wavelength: 340 nm, measuring wavelength: 615 nm). The relative activity (%) of a well to which the enzyme and the test compound were added was calculated using the value of a well to which the test compound was not added being 100% and the value of a well to which the enzyme and the test compound were not added being 0%. The Flt-3 inhibitory activity (%) of the test compound was determined by subtracting the relative activity (%) from 100.

Aurora = Aurora inhibitory activity using Western blotting method (phosphorylation of histone H3 Ser10); assay type: cell-based, human; conditions: 10 μmol/L, 30 minutes, HCT116 cells accumulated in M phase with Nocodazole
Text: It is known that Aurora phosphorylates Ser10 of histone H3 in the G2/M phase during the cell cycle [Molecular and Cellular Biology, Vol. 22, p. 874 (2002)]. Consequently, the inhibition of phosphorylation of histone H3 Ser10 in cells was detected by a Western blotting method using human colon cancer cell line HCT116 cells accumulated in the M phase. McCoy's 5A culture medium (GIBCO, Catalogue No. 16600-082) containing 10% bovine fetus serum (GIBCO, Catalogue No. 10099-141) was used for the cultivation of the cells. The HCT116 cells were inoculated and then treated with Nocodazole (Sigma Corporation, Catalogue No. M-1404) so that the cell cycle was accumulated to the M phase. A test compound (final concentration: 10 μmol/L) was added thereto, and the cells were incubated at 37° C. for 30 minutes. The cells were then recovered and washed with a phosphate buffered saline (PBS) once. The cells were suspended in a cell-solubilizing solution (50 mmol/L 2-[4-(2-hydroxyethyl)-1-piperazinyl]ethanesulfonic acid (HEPES) (pH 7.4), 150 mmol/L NaCl, 1 mmol/L ethylenediamine-N,N,N′,N′-tetraacetic acid disodium salt dihydrate (EDTA), 2.5 mmol/L ethylene glycol bis(2-aminoethylether)-N,N,N′,N′-tetraacetic acid (EGTA), 0.1% Tween-20 (Bio-Rad Laboratories Inc., Catalogue No. 170-6531), 10% β-glycerophosphate, 1 mmol/L NaF, 0.1 mmol/L Na3VO4, 1 mmol/L Pefabloc SC (Roche Diagnostics K.K., Catalogue No. 1 429 868), and Complete EDTA-free (Roche Diagnostics K.K., Catalogue No. 1 873 580)}, and the suspension was frozen and thawed. Subsequently, the supernatant obtained by centrifugal separation was used as a cell extraction solution. SDS-PAGE was performed using a 12.5% polyacrylamide gel under the condition that the amount of protein per sample was 30 μg in accordance with the method used by Laemmli et al. The protein was transferred onto a PVDF membrane (Millipore Corporation, Catalogue No. IPVH304F0) by a semi-dry method. The membrane was allowed to react with anti-phosphorylated histone H3 Ser10 antibody (Upstate Inc., Catalogue No. 06-570) used as a primary antibody, and an HRP-labeled anti-rabbit IgG antibody (Amersham biosciences, Catalogue No. NA934V) used as a secondary antibody. Subsequently, […] was detected using a SuperSignal West Pico chemiluminescence substrate (Pierce, Catalogue No. 34077).

Row | melting point [°C] | Compound | antitumor activity (leukemia-transplant mice) | antitumor activity [1] | also measured
1 | – | C[C@]12O[C@H](C[C@]1(O)CO)n1c3ccccc3c3c4c(c5c6ccccc6n2c5c31)CNC4=O [CEP-701] | exhibit an antitumor activity | – | –
2 | – | CN1CCN(c2ccc3nc(-c4c(N)c5c(F)cccc5[nH]c4=O)[nH]c3c2)CC1 [CHIR-258] | exhibit an antitumor activity | exhibit an antitumor activity | –
3 | – | COc1cc2c(N3CCN(C(=O)Nc4ccc(OC(C)C)cc4)CC3)ncnc2cc1OCCCN1CCCCC1 [CT53518] | exhibit an antitumor activity | – | –
4 | > 295 | O=C1NCc2c(Cl)ccc(-c3cc4cc(C(=O)N5CCN(c6ccccn6)CC5)ccc4[nH]3)c21 [Compound 107, 4-Chloro-7-{1H-5-[4-(pyridin-2-yl)piperazin-1-ylcarbonyl]indol-2-yl}isoindolinone] | – | – | –
5 | 255 | O=C1NCc2c(Cl)ccc(-c3cc4cc(C(=O)N5CCN(CCOCCO)CC5)ccc4[nH]3)c21 [Compound 109, 4-Chloro-7-{1H-5-[4-(2-(2-hydroxyethoxy)ethyl)piperazin-1-ylcarbonyl]indol-2-yl}isoindolinone] | – | – | –
6 | 271 to 272 | CN(C)CCN1CCN(C(=O)c2ccc3[nH]c(-c4ccc(Cl)c5c4C(=O)NC5)cc3c2)CC1 [Compound 112, 4-Chloro-7-{1H-5-[4-(2-dimethylaminoethyl)piperazin-1-ylcarbonyl]indol-2-yl}isoindolinone] | – | – | –
7 | 232 to 234 | COc1cc(-c2cc3cc(CN(C)C)ccc3[nH]2)c2c(c1OS(C)(=O)=O)CNC2=O [Compound 362, 4-Methanesulfonyloxy-5-methoxy-7-[1H-5-(dimethylaminomethyl)indol-2-yl]isoindolinone] | – | – | ability of inducing enlarged lobed nuclei for HCT116 cells (HCT116 cells): show ability of inducing enlarged lobed nuclei; inhibition at 10 µM (human FGFR3): ≥ 50%; inhibition at 10 µM (Flt-3): ≥ 50%; suppression of the phosphorylation of histone H3 Ser10 in HCT116 cells (Aurora): almost completely suppressed
8 | 196 to 199 | COc1cc(-c2cc3cc(CNC4CCCCC4)ccc3[nH]2)c2c(c1OS(C)(=O)=O)CNC2=O [Compound 365, 4-Methanesulfonyloxy-5-methoxy-7-[1H-5-(cyclohexylaminomethyl)indol-2-yl]isoindolinone] | – | – | –
9 | 187 to 189 | COc1cc(-c2cc3cc(CN4CCCC4)ccc3[nH]2)c2c(c1OS(C)(=O)=O)CNC2=O [Compound 366, 4-Methanesulfonyloxy-5-methoxy-7-[1H-5-(pyrrolidin-1-ylmethyl)indol-2-yl]isoindolinone] | – | – | ability of inducing enlarged lobed nuclei for HCT116 cells (HCT116 cells): show ability of inducing enlarged lobed nuclei; inhibition at 10 µM (human FGFR3): ≥ 50%; inhibition at 10 µM (Flt-3): ≥ 50%; suppression of the phosphorylation of histone H3 Ser10 in HCT116 cells (Aurora): almost completely suppressed
10 | 188 to 190 | COCCNCc1ccc2[nH]c(-c3cc(OC)c(OS(C)(=O)=O)c4c3C(=O)NC4)cc2c1 [Compound 374, 4-Methanesulfonyloxy-5-methoxy-7-[1H-5-(2-methoxyethylaminomethyl)indol-2-yl]isoindolinone] | – | – | ability of inducing enlarged lobed nuclei for HCT116 cells (HCT116 cells): show ability of inducing enlarged lobed nuclei; inhibition at 10 µM (human FGFR3): ≥ 50%; inhibition at 10 µM (Flt-3): ≥ 50%; suppression of the phosphorylation of histone H3 Ser10 in HCT116 cells (Aurora): almost completely suppressed
11 | – | CCN(CC)CCCCNc1ncc2cc(-c3cc(OC)cc(OC)c3)c(NC(=O)NC(C)(C)C)nc2n1 [PD173074] | – | exhibit an antitumor activity | –
12 | – | CO[C@@H]1[C@H](N(C)C(=O)c2ccccc2)C[C@H]2O[C@]1(C)n1c3ccccc3c3c4c(c5c6ccccc6n2c5c31)C(=O)NC4 [PKC412] | exhibit an antitumor activity | exhibit an antitumor activity | –
13 | – | Cc1c[nH]c(/C=C2\C(=O)Nc3ccccc32)c1CCC(=O)O [SU5402] | – | exhibit an antitumor activity | –
14 | – | CCN(CC)CCNC(=O)c1c(C)[nH]c(/C=C2\C(=O)Nc3ccc(F)cc32)c1C [SU11248] | exhibit an antitumor activity | – | –
15 | – | BIBF1000 | – | exhibit an antitumor activity | –
